{
  "source": "patent US8017624B2",
  "about": "“Fused aminopiperidines as dipeptidyi peptidase-IV inhibitors for the treatment or prevention of diabetes” (Merck Sharp & Dohme Corp., priority 2005, dated 2011)",
  "origin": "cited, not measured here",
  "key": {"[1]": {"test_system": "cardiac allograft survival", "conditions": "rats; Transplantation 63: 1495-1500 (1997)"}, "hematopoiesis": {"test_system": "hematopoiesis", "conditions": "mouse, cyclophosphamide-induced neutropenia; WO 99/56753"}, "DPP-IV": {"biological_target": "T1, DPP-IV (Homo sapiens, UniProt P27487)", "T1 construct": "GRF is rapidly degraded in plasma to GRF[3-44]", "T1 sequence (P27487 whole entry, species assumed)": "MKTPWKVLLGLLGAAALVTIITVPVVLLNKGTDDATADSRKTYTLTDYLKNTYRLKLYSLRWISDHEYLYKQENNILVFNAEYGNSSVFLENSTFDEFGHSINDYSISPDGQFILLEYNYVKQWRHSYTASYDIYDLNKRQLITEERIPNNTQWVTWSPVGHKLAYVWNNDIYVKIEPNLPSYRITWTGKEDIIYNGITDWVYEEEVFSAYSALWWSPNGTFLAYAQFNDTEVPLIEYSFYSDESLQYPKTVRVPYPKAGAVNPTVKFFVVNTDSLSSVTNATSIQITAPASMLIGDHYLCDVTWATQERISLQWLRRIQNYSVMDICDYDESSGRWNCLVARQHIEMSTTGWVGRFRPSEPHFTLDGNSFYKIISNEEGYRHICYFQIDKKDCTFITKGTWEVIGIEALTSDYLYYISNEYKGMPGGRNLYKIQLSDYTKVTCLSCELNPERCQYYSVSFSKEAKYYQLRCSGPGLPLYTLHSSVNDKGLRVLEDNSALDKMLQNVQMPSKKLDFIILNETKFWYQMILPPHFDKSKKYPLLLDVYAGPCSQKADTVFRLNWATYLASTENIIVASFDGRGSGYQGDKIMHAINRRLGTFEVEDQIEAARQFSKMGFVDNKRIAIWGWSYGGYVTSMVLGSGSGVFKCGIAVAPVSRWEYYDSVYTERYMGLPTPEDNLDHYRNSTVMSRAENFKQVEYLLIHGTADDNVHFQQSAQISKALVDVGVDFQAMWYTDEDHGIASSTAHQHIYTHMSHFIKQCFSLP"}},
  "data": [
    {"smiles": "CC(C)N1CCC(c2ccccc2)(c2ccccc2)CC1", "note": "[Prodipine, Pro-Pro-diphenyl-phosphonate]", "values": [
      {"measurement": "cardiac allograft survival", "setting": "[1]", "value": "double cardiac allograft survival in rats from day 7 to day 14"}
    ]},
    {"smiles": "CC(C)[C@H](N)C(=O)N1CCC[C@H]1B(O)O", "note": "[Val-Boro-Pro]", "values": [
      {"measurement": "effect on hematopoiesis", "setting": "hematopoiesis", "value": "stimulated hematopoiesis"}
    ]},
    {"smiles": "CC[C@H](C)[C@H](N)C(=O)N1CCC[C@H]1C(=O)N[C@H](C(=O)O)[C@@H](C)CC", "note": "[diprotin A]", "values": [
      {"measurement": "degradation of GRF in plasma to GRF[3-44]", "setting": "DPP-IV", "value": "prevented"}
    ]}
  ]
}
